Entries after “also recorded” stand apart in the source; their conditions may differ. Read-outs that look alike come from different tables or passages of the source.
How the values were obtained:
[1] = biological target: HIV-1 protease (Human immunodeficiency virus type 1 group M subtype B, UniProt P03369); experiment: biochemical
Description: HIV-1 protease activity was measured at 37° C. using a continuous fluorimetric assay based on the method of Toth et al., (Toth et al., 1990, Int. J. Pept. Res. 36 544-550). The substrate, 2-aminobenzoyl-threonine-isoleucine-norleucine-(p-nitro)-phenylalanine-glutamine-arginine-NH2 (Abz-NF^* -6), was synthesised by solid phase peptide synthesis (Kent et al., 1991, In: Peptides 1990: Proceedings of the Twenty-First European Peptide Symposium (Girault, E. and Andrew, D. eds.) pp 172-173, ESCOM, Leiden). Enzyme activity was measured as the increase in fluorescence intensity upon substrate hydrolysis. The change in fluorescence intensity was monitored with a Perkin Elmer LS50B luminescence spectrometer fitted with a thermostatted micro cuvette holder. Measurements were carried out using an excitation wavelength of 320 nm (bandwith 5 nm) and an emission wavelength of […] (bandwith 5 nm).
Inhibition assays were routinely carried out at pH 6.5 and μ=0.1 M using a single substrate concentration. The assay mixtures contained 50 μM Abz-NF^* -6 in 100 mM 2-(N-morpholino)ethanesulphonate buffer, containing 10% (v/v) glycerol and 50 μg/ml bovine serum albumin, in a total final volume of 400 μl. Where inhibitors had to be dissolved in dimethyl sulphoxide or other organic solvents, the final concentration of solvent in the control and inhibition assays were kept absolutely constant because of the severe inhibitory effect of some solvents on the enzyme activity (Bergman et al., 1992, 17th Ann. Lorne Conf. on Protein Struct. and Funct. Abstr.). In all assays, the reaction was initiated by the addition of 10 μl of enzyme solution.

[2] = tested on: HIV-1 (strain TC354); experiment: Assay for anti-viral activity: HIV-1 (strain TC354) replication in PHA-stimulated cord blood mononuclear cells, reverse transcriptase activity; format: cell-based; details: read-out: effective concentration, inhibition of virus replication
Description: Method: Target cells (PHA-stimulated cord blood mononuclear cells) were washed free of PHA and inoculated with HIV-1 (strain TC354) at a multiplicity of infection of 1, in the presence of 20 μg/ml DEAE-dextran for 30 mins. Cells were washed to remove unbound virus and residual DEAE-dextran. 10^5 cells were added to each well of 96 well plate, solutions of test compounds were added, each tested in triplicate. Dilutions were prepared in RPMI/1640. Tissue culture medium (RPMI/1640 buffer, 10% FCS, 20 U/ml […]) was added to a final volume of 200 μl. Reverse transcriptase activity was assayed four days post inoculation, RT activity >30 cpm was considered positive for HIV-1 replication.

[3] = tested on: HIV; experiment: Activity against HIV in cells / cell culture; format: cell-based

Which results are given for `CC(C)(C)NC(=O)[C@@H]1CCCCN1C[C@@H](O)[C@@H]1Cc2ccc(cc2)OCCCC(=O)N[C@@H](CC(N)=O)C(=O)N1` [Compound 44]?
IC50 [1]: 16 nM; EC50 ([2]; Human immunodeficiency virus 1, 96 h): 1000 nM; anti-viral activity, stated in words [3]: poor inhibitor of viral replication in cells

`CC(C)CCN(C[C@@H](O)[C@@H]1Cc2ccc(cc2)OCCCCC(=O)N[C@@H](C(C)C)C(=O)N1)S(=O)(=O)c1ccccc1` [Compound 68] was tested. Which EC50 ([2]; Human immunodeficiency virus 1, 96 h, four days post inoculation) did it give?
The EC50 was 100 nM.

How did the “protease inhibition, stated in words” value [1] turn out when `CC[C@H](C)[C@@H]1NC(=O)[C@@H](NC[C@@H](O)[C@H](Cc2ccccc2)NC(=O)[C@@H](NC(=O)c2ccc3ccccc3n2)C(C)C)Cc2ccc(cc2)OCCCNC1=O` [Compound 93] was run?
Its value is “very potent inhibitor of HIV-1 protease; also recorded: equipotent as a protease inhibitor with the DuPont-Merck compound DM323”.

What about the IC50 ([1]; Table 9, R isomer, read-out: IC50) of the same compound?
The IC50 was 1 nM.

What about the EC50 ([2]; four days post inoculation) of the same compound?
Its EC50 is 100000 nM.

What about the IC50 ([3]; Human immunodeficiency virus 1, read-out: IC50, anti-viral activity against HIV in cell culture) of the same compound?
The IC50 was under 1000 nM.
